Tests used:
[1] = UV-stabilizing effect: residual metaflumizone after exposure to light (Atlas Suntest), HPLC; assay type: physicochemical; conditions: dried film; for Residual metaflumizone content (%) after 1 day: continuous light 1 day; for Residual metaflumizone content (%) after 1 week: continuous light seven days
Experimental: UV-Stabilizing Effect A formulation comprising 100 g/l of metaflumizone and 40 g/l of UV absorber was prepared as described in Example 2. The formulation was diluted with water such that an active content of 10 g/l (Table 3) or 1 g/l (Table 4) was obtained.
About 20 mg of the formulation thus prepared were placed on a microscope slide, allowed to dry for 30 minutes and then exposed to light for one or seven days continuously (Atlas Suntest CRT plus, “Outdoor” setting, irradiation corresponds to the same spectrum and intensity as normal sunlight at midday in summer). After the exposure time, the samples were dissolved in dimethyl sulfoxide. The residual level of metaflumizone was determined by means of quantitative HPLC (column: BEH C18 1.7 μm 2.1×100; elution with a gradient of acetonitrile/0.1% H3PO4 rising from 5/95:95/5). For comparison, each exposure series run included a sample without UV absorber (reference). Evaluation: 2 samples were treated as blank samples by immediately redissolving them after drying, without exposure to light, and determining the metaflumizone content. The resulting mean was set equal to 100% and the remaining samples were standardized against that.
A commercial formulation of metaflumizone (Alverde®) comprising 240 g/l of metaflumizone was diluted with water to an active content of 10 g/l. Various UV absorbers were added (Table 5) and analyzed as described under Example 4A.

[2] = Determination of the surface tension; assay type: physicochemical; conditions: 25° C.; UV absorber concentrations from about 1 mg/l to 5,000 mg/l
Experimental: The surface tension (ST) of the UV absorbers 1C and 1F was determined at 25° C. at concentrations of the UV absorber of from about 1 mg/l to 5,000 mg/l (Table 4). The ST of water to air is, for comparison, 72.4 mN/m, the ST of commercial surfactants is about 30-35 mN/m. […] It was also shown that UV absorbers according to the invention are similar in surface activity to commercial surfactants.

[3] = Alverde® diluted to 10 g/l metaflumizone, UV absorber added
[4] = formulation 100 g/l metaflumizone + 40 g/l UV absorber diluted to 1 g/l metaflumizone
[5] = formulation 100 g/l metaflumizone + 40 g/l UV absorber diluted to 10 g/l metaflumizone

Compound | Residual metaflumizone content (%) after 1 day [1, 3] | Residual metaflumizone content (%) after 1 week [1, 3] | ST (surface tension) [2] | Residual metaflumizone content (%) after 1 day [1, 4] | Residual metaflumizone content (%) after 1 week [1, 4] | Residual metaflumizone content (%) after 1 day [1, 5] | Residual metaflumizone content (%) after 1 week [1, 5]
COCCOCCOCCOCCOCCOCCOCCOC(=O)CCc1cc(-n2nc3ccc(Cl)cc3n2)c(O)c(C(C)(C)C)c1 [Example 1J, 2-(5-chloro-2H-benzotriazol-2-yl)-6-tert-butyl-4-hydroxyphenylpropionic acid [Pluriol A350E]ester] | 46% | 30% | – | – | – | – | –
p-Aminobenzoic acid ethoxylate (45) [Uvinul ® P25] | – | – | 56.9 mN/m | – | – | – | –
COCCOCCOCCOCCOCCOCCOCCOC(=O)CCc1cc(-n2nc3ccccc3n2)c(O)c(C(C)(C)C)c1 [Example 1C, 3-(3-benzotriazol-2-yl-5-tert-butyl-4-hydroxyphenyl)propionic acid [Pluriol A350E]ester] | 34% | 1% | 39.5 mN/m | 45% | 16% | 89% | 55%
3-(3-benzotriazol-2-yl-5-tert-butyl-4-hydroxyphenyl)propionic acid [tridecanol-EO18]ester [Example 1F] | – | – | 34.7 mN/m | – | – | – | –
